Earlier results as cited in patent US11122832B2, “Methods and compositions to improve weight loss and cardiometabolic health beyond diet and excercise” (Nature's Sunshine Products, Inc., priority 2016, dated 2021).
Where two headings read alike, the source gives them in different places.

What was measured:
[1] = tested on: plasma concentration of NOx; conditions: 6 g, over 120 minutes, healthy individuals with normal plasma ADMA
[2] = not given; remark: listed apart in the source

## N=C(N)NCCC[C@H](N)C(=O)O [L-arginine]
[1]
  plasma concentration of NOx after acute supplementation: does not increase

## C[C@H]1CNCCc2ccc(Cl)cc21 [Lorcaserin]
Evaluation 12 weeks, BID 10 mg, placebo 12%
  Responders (5% weight loss): 36%
Period 56 weeks, placebo 9%
  ≥10% weight loss responders: 22%
Period 56 weeks, placebo 23%
  ≥5% weight loss responders: 47%

## O=NO [NO2, nitrite]
[2]; estimated
  filtered amount reabsorbed in the renal tubules: 96%

## O=[N+]([O-])O [NO3, nitrate]
[2]; dietary (oral)
  bioavailability of dietary NO3: 100%
[2]; in adults
  clearance from blood to urine: approximately 20 mL/min
[2]; orally consumed
  time to peak plasma concentration: approximately 1 hour
[2]; plasma
  half-life of plasma NO3: 5 to 8 h

## [N]=O [NO, Nitric oxide]
[2]; in vivo
  half-life of NO once produced through NOS: approximately 1 second

## CCCCCCCCCCC[C@@H](C[C@@H]1OC(=O)[C@H]1CCCCCC)OC(=O)[C@H](CC(C)C)NC=O [Orlistat]
Period 24 weeks
  ≥5% weight loss responders: 42%
  ≥10% weight loss responders: 15%
Period 24 weeks, listed as orlistat
  ≥5% weight loss responders: 42%
